Measurements from patent publication US10858362B2, “Imidazopyrazinones as PDE1 inhibitors” (H. Lundbeck A/S, priority 2015, dated 2020).

Experiments:
Type in all cases: biochemical
PDE1A = PDE1A (Homo sapiens (Human), UniProt P54750); assay: PDE1 inhibition assay, PDE1A; conditions: for IC50: 15 nM tritium labelled cAMP; for inhibition at 2 µM: read-out: PDE1A, % inhibition (at 2 μM); for percent inhibition of PDE1A at 2 µM: % sign not given
Method: (§1) Reactions were initiated by addition of the cyclic nucleotide substrate, and reactions were allowed to proceed for 1 h at room temperature before being terminated through mixing with 20 μL (0.2 mg) yttrium silicate SPA beads (PerkinElmer).

PDE1B = PDE1B (Homo sapiens (Human), UniProt Q01064); assay: PDE1 inhibition assay, PDE1B; conditions: for IC50: 15 nM tritium labelled cAMP; for inhibition at 2 µM: read-out: PDE1B, % inhibition (at 2 μM); for inhibition at 1 µM: read-out: PDE1B, % inhibition (at 1 μM)
PDE1B, sequence (Q01064 whole entry): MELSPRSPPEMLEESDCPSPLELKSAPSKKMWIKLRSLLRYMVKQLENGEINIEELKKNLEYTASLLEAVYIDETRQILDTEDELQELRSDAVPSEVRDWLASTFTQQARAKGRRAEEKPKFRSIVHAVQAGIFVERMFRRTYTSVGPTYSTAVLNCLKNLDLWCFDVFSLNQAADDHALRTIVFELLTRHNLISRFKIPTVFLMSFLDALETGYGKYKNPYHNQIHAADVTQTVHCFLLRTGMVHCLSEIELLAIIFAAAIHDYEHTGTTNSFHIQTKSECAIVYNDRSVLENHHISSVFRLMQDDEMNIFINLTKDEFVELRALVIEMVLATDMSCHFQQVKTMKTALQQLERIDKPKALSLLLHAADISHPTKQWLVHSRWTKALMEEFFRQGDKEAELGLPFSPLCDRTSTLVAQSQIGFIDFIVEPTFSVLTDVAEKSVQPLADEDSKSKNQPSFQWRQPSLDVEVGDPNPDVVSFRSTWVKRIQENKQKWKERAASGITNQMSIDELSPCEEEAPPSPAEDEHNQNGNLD
Method: as §1, with “(PerkinElmer). The beads were allowed to settle for 1 h in the dark before the plates were counted in a Wallac 1450 Microbeta counter.” for “(PerkinElmer).”

PDE1C = PDE1C (Homo sapiens (Human), UniProt Q14123); assay: PDE1 inhibition assay, PDE1C; conditions: 15 nM tritium labelled cAMP
PDE1C, sequence (Q14123 whole entry): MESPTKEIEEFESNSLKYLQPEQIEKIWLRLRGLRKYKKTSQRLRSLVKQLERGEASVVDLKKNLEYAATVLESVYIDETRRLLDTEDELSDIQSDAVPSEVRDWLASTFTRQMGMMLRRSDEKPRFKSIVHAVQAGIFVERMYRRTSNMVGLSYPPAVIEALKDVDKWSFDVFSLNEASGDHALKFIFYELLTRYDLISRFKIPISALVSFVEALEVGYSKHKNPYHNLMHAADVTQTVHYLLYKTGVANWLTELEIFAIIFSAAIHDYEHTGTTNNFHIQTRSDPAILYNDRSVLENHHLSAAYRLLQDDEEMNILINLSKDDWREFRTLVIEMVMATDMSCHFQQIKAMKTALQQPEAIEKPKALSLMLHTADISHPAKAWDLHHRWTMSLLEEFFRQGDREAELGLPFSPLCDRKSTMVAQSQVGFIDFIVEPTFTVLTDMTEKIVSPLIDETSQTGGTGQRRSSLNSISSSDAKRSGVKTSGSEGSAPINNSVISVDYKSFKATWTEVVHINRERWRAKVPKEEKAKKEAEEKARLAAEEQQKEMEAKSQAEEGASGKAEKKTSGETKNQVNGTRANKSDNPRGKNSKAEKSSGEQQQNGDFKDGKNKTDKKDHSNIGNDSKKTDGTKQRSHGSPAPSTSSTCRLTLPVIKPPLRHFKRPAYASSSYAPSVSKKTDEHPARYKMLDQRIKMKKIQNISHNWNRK
Method: as §1, with “(PerkinElmer). The beads were allowed to settle for 1 h in the dark before the plates were counted in a Wallac 1450 Microbeta counter.” for “(PerkinElmer).”

PDE9 = PDE9 (Homo sapiens (Human), UniProt O76083); assay: PDE9 inhibition assay
PDE9, sequence (O76083 whole entry): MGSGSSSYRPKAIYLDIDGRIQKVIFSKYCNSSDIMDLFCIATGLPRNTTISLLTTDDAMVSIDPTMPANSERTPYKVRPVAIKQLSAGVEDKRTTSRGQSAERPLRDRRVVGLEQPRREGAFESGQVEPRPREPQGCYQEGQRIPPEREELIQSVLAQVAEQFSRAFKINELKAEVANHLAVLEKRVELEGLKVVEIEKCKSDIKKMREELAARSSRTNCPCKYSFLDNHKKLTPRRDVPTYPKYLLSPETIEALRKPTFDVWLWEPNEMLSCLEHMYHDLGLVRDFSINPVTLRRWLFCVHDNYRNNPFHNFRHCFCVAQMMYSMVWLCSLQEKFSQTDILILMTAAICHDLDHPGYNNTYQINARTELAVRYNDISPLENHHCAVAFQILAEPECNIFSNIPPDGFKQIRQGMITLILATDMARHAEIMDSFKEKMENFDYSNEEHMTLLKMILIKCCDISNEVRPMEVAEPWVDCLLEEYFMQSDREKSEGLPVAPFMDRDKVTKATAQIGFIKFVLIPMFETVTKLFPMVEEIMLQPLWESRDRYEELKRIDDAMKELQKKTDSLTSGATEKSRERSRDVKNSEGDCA
Outline: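 Human PDE9 in 50 mM HEPES pH 7.6, 10 mM MgCl2, 0.02% Tween20, enzyme set to convert 20-25% of 10 nM ^3H-cAMP substrate; inhibitors at varying amounts. 1 hr incubation, stopped with yttrium silicate SPA beads, settled 1 hr in dark, then scintillation counted.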

PDE1A, sequence (P54750 whole entry): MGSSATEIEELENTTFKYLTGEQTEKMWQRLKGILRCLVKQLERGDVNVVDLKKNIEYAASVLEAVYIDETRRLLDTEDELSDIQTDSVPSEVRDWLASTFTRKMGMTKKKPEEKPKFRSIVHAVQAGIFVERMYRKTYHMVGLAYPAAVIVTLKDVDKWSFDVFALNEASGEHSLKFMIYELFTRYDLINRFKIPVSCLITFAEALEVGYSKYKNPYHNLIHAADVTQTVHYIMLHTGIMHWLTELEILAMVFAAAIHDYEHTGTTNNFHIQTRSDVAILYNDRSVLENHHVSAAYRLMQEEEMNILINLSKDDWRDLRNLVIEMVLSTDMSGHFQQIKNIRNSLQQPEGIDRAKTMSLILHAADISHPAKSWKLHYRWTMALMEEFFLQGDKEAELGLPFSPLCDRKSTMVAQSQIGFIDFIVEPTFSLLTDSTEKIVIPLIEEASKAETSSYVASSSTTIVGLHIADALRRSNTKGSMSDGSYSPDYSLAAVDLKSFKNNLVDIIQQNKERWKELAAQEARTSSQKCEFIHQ

Compound `COc1ccc(Cn2c(C)cn3c([C@@H](C)c4ccccc4)ncc3c2=O)cc1` [Example 71, (S)-7-(4-methoxybenzyl)-6-methyl-3-(1-phenylethyl)imidazo[1,5-a]pyrazin-8(7H)-one] has an IC50 (PDE1A) of 211 nM, an IC50 (PDE1B) of 238 nM and an IC50 (PDE1C) of 538 nM. The inhibition at 10 µM (PDE9) was 13%.
Work on `O=c1c2cnc(C3CCOCC3)n2ccn1CC1CCCCC1` [Example 11, 7-(Cyclohexylmethyl)-3-(tetrahydro-2H-pyran-4-yl)imidazo[1,5-a]pyrazin-8(7H)-one] yielded an IC50 (PDE1A) of 113 nM, an IC50 (PDE1B) of 72 nM and an IC50 (PDE1C) of 43 nM. The inhibition at 10 µM (PDE9) was 18%.
`COc1ccc(Cn2c(C)cn3c(C4CC(C)OC(C)C4)ncc3c2=O)cc1` (centres unmarked) [Example 84, 3-(2,6-dimethyltetrahydro-2H-pyran-4-yl)-7-(4-methoxybenzyl)-6-methylimidazo[1,5-a]pyrazin-8(7H)-one] showed an IC50 (PDE1A) of 627 nM, an IC50 (PDE1B) of 103 nM and an IC50 (PDE1C) of 337 nM. For the same compound, the inhibition at 10 µM (PDE9) was -5%.
With `O=c1c2cnc(C3CCOCC3)n2ccn1Cc1cccc(F)c1` [Example 9, 7-(3-Fluorobenzyl)-3-(tetrahydro-2H-pyran-4-yl)imidazo[1,5-a]pyrazin-8(7H)-one] the inhibition at 2 µM (PDE1A) was 68%, the inhibition at 2 µM (PDE1B) was 90% and the IC50 (PDE1C) was 170 nM. The inhibition at 10 µM (PDE9) was 2%.
`COc1ccc(Cn2c(C)cn3c(C4(C)CCN(S(N)(=O)=O)C4)ncc3c2=O)cc1` (centres unmarked) [Example 91, 3-(7-(4-methoxybenzyl)-6-methyl-8-oxo-7,8-dihydroimidazo[1,5-a]pyrazin-3-yl)-3-methylpyrrolidine-1-sulfonamide] gave an IC50 (PDE1A) of 181 nM, an IC50 (PDE1B) of 185 nM and an IC50 (PDE1C) of 417 nM. It also gave an inhibition at 10 µM (PDE9) of 20%.
With `COc1ccc(Cn2c(C)cn3c(C4CCOCC4)ncc3c2=O)cn1` [Example 57, 7-((6-methoxypyridin-3-yl)methyl)-6-methyl-3-(tetrahydro-2H-pyran-4-yl)imidazo[1,5-a]pyrazin-8(7H)-one] the IC50 (PDE1A) was 45 nM, the IC50 (PDE1B) was 26 nM and the IC50 (PDE1C) was 84 nM. It also gave an inhibition at 10 µM (PDE9) of -5%.
`COc1cccc(Cn2c(C)cn3c(C4CCOCC4)ncc3c2=O)c1` [Example 20, 7-(3-Methoxybenzyl)-6-methyl-3-(tetrahydro-2H-pyran-4-yl)imidazo[1,5-a]pyrazin-8(7H)-one] was tested, and the IC50 (PDE1A) was 416 nM, the IC50 (PDE1B) was 175 nM and the IC50 (PDE1C) was 62 nM. The inhibition at 10 µM (PDE9) was -38%.
For `Cc1cn2c([C@@H]3CCCCO3)ncc2c(=O)n1Cc1cccc(F)c1` (single isomer, unassigned; isomer 1) [30, isomer 1], the “PDE1A, % inhibition (at 1 μM)” value (PDE1A) was 20%, the IC50 (PDE1B) was 615 nM and the IC50 (PDE1C) was 225 nM. The “% inhibition of PDE9 at 10 microM” value (PDE9) was −11%.
`Cc1cn2c([C@H]3CCOC3)ncc2c(=O)n1Cc1cccc(F)c1` (single isomer, unassigned; isomer 2) [31, isomer 2] was tested, and the IC50 (PDE1A) was 347 nM, the IC50 (PDE1B) was 138 nM and the IC50 (PDE1C) was 31 nM. For the same compound, the “% inhibition of PDE9 at 10 microM” value (PDE9) was 5%.
For `O=c1c2cnc(C3CC3)n2ccn1Cc1cccc(F)c1` [Example 6, 3-Cyclopropyl-7-(3-fluorobenzyl)imidazo[1,5-a]pyrazin-8(7H)-one], the inhibition at 2 µM (PDE1A) was 68%, the inhibition at 2 µM (PDE1B) was 81% and the IC50 (PDE1C) was 290 nM. For the same compound, the inhibition at 10 µM (PDE9) was 25%.
`COc1ccc(Cn2c(C)cn3c(N4CCOC(C)(C)C4)ncc3c2=O)cc1` [Example 98, 3-(2,2-dimethylmorpholino)-7-(4-methoxybenzyl)-6-methylimidazo[1,5-a]pyrazin-8(7H)-one] was tested, and the IC50 (PDE1A) was 287 nM, the IC50 (PDE1B) was 102 nM and the IC50 (PDE1C) was 135 nM. For the same compound, the inhibition at 10 µM (PDE9) was 4%.
Work on `CO[C@H]1CC[C@@H](Cn2c(C)cn3c(C4CCOCC4)ncc3c2=O)CC1` [Example 67, 7-(((cis)-4-methoxycyclohexyl)methyl)-6-methyl-3-(tetrahydro-2H-pyran-4-yl)imidazo[1,5-a]pyrazin-8(7H)-one] yielded an IC50 (PDE1A) of 234 nM, an IC50 (PDE1B) of 87 nM and an IC50 (PDE1C) of 307 nM. For the same compound, the inhibition at 10 µM (PDE9) was 10%.
With `Cc1cn2c([C@H]3C[C@H]3C)ncc2c(=O)n1Cc1cccc(F)c1` (single isomer, unassigned; isomer 4) [35, isomer 4] the “PDE1A, % inhibition (at 1 μM)” value (PDE1A) was 43%, the IC50 (PDE1B) was 360 nM and the IC50 (PDE1C) was 85 nM. The “% inhibition of PDE9 at 10 microM” value (PDE9) was 5%.
`COc1ccc(Cn2c(C)cn3c(C4(C)CNC(=O)C4)ncc3c2=O)cc1` (centres unmarked) [Example 75, 7-(4-methoxybenzyl)-6-methyl-3-(3-methyl-5-oxopyrrolidin-3-yl)imidazo[1,5-a]pyrazin-8(7H)-one] gave an IC50 (PDE1A) of 236 nM, an IC50 (PDE1B) of 297 nM and an IC50 (PDE1C) of 360 nM. For the same compound, the inhibition at 10 µM (PDE9) was 8%.
Work on `Cc1cn2c(N3CCC4OCCC43)ncc2c(=O)n1Cc1cccc(F)c1` (single isomer, unassigned; isomer 1) [99, isomer 1] yielded an IC50 (PDE1A) of 241 nM, an IC50 (PDE1B) of 134 nM and an IC50 (PDE1C) of 27 nM. For the same compound, the “% inhibition of PDE9 at 10 microM” value (PDE9) was 9%.
In the case of `COc1ccc(Cn2c(C)cn3c(C(C)(C)O)ncc3c2=O)cc1` [Example 86, 3-(2-hydroxypropan-2-yl)-7-(4-methoxybenzyl)-6-methylimidazo[1,5-a]pyrazin-8(7H)-one], the IC50 (PDE1A) is reported as 193 nM, the IC50 (PDE1B) is reported as 118 nM and the IC50 (PDE1C) is reported as 214 nM. For the same compound, the inhibition at 10 µM (PDE9) was -11%.
With `CO[C@H]1CC[C@H](Cn2c(C)cn3c(C4CCOCC4)ncc3c2=O)CC1` [Example 68, 7-(((trans)-4-methoxycyclohexyl)methyl)-6-methyl-3-(tetrahydro-2H-pyran-4-yl)imidazo[1,5-a]pyrazin-8(7H)-one] the IC50 (PDE1A) was 323 nM, the IC50 (PDE1B) was 127 nM and the IC50 (PDE1C) was 1860 nM. The inhibition at 10 µM (PDE9) was 5%.
With `Cc1cn2c(C3CCOCC3)ncc2c(=O)n1Cc1ccc(O)cc1` [Example 53, 7-(4-hydroxybenzyl)-6-methyl-3-(tetrahydro-2H-pyran-4-yl)imidazo[1,5-a]pyrazin-8(7H)-one] the IC50 (PDE1A) was 401 nM, the IC50 (PDE1B) was 35 nM and the IC50 (PDE1C) was 84 nM. It also gave an inhibition at 10 µM (PDE9) of -41%.
With `COc1ccc(Cn2c(C)cn3c(C4CCOCC4)ncc3c2=O)cc1Cl` [Example 51, 7-(3-chloro-4-methoxybenzyl)-6-methyl-3-(tetrahydro-2H-pyran-4-yl)imidazo[1,5-a]pyrazin-8(7H)-one] the IC50 (PDE1A) was 199 nM, the IC50 (PDE1B) was 36 nM and the IC50 (PDE1C) was 46 nM. The inhibition at 10 µM (PDE9) was 1%.
In the case of `O=c1c2cnc(C3CC3)n2ccn1CC1CCCCC1` [Example 8, 7-(Cyclohexylmethyl)-3-cyclopropylimidazo[1,5-a]pyrazin-8(7H)-one], the IC50 (PDE1A) is reported as 252 nM, the IC50 (PDE1B) is reported as 67 nM and the IC50 (PDE1C) is reported as 100 nM. For the same compound, the inhibition at 10 µM (PDE9) was 9%.
For `Cc1cn2c(C3CCOCC3)ncc2c(=O)n1Cc1cccc(C#N)c1` [Example 45, 3-((6-methyl-8-oxo-3-(tetrahydro-2H-pyran-4-yl)imidazo[1,5-a]pyrazin-7(8H)-yl)methyl)benzonitrile], the “percent inhibition of PDE1A at 2 µM” value (PDE1A) was 64, the inhibition at 1 µM (PDE1B) was 54% and the IC50 (PDE1C) was 149 nM. For the same compound, the inhibition at 10 µM (PDE9) was 6%.
For `COc1ccc(Cn2c(C)cn3c(N4CCCOCC4)ncc3c2=O)cc1` [Example 97, 7-(4-methoxybenzyl)-6-methyl-3-(1,4-oxazepan-4-yl)imidazo[1,5-a]pyrazin-8(7H)-one], the IC50 (PDE1A) was 202 nM, the IC50 (PDE1B) was 82 nM and the IC50 (PDE1C) was 128 nM. For the same compound, the inhibition at 10 µM (PDE9) was -8%.
`COc1ccc(Cn2c(C)cn3c(C4CCOCC4)ncc3c2=O)cc1` [Example 23, 7-(4-Methoxybenzyl)-6-methyl-3-(tetrahydro-2H-pyran-4-yl)imidazo[1,5-a]pyrazin-8(7H)-one] was tested, and the IC50 (PDE1A) was 14 nM, the IC50 (PDE1B) was 12 nM and the IC50 (PDE1C) was 19 nM. For the same compound, the inhibition at 10 µM (PDE9) was 16%.
`COc1ccc(Cn2c(C)cn3c(C4CCOCC4C)ncc3c2=O)cc1` (centres unmarked) [Example 69, 7-(4-methoxybenzyl)-6-methyl-3-(3-methyltetrahydro-2H-pyran-4-yl)imidazo[1,5-a]pyrazin-8(7H)-one] was tested, and the IC50 (PDE1A) was 13 nM, the IC50 (PDE1B) was 8 nM and the IC50 (PDE1C) was 24 nM. For the same compound, the inhibition at 10 µM (PDE9) was 2%.
For `CCn1c(C)cn2c(C3CCOCC3)ncc2c1=O` [Example 59, 7-ethyl-6-methyl-3-(tetrahydro-2H-pyran-4-yl)imidazo[1,5-a]pyrazin-8(7H)-one], the IC50 (PDE1A) was 2330 nM, the IC50 (PDE1B) was 496 nM and the IC50 (PDE1C) was 1740 nM. It also gave an inhibition at 10 µM (PDE9) of -13%.
Work on `Cc1cn2c(C3CCOCC3)ncc2c(=O)n1C[C@H]1CC[C@@H](C)CC1` [66, cis] yielded an IC50 (PDE1A) of 7 nM, an IC50 (PDE1B) of 6 nM and an IC50 (PDE1C) of 4 nM. For the same compound, the “% inhibition of PDE9 at 10 microM” value (PDE9) was −3%.
`Cc1noc(C)c1Cn1c(C)cn2c(C3CCOCC3)ncc2c1=O` [Example 81, 7-((3,5-dimethylisoxazol-4-yl)methyl)-6-methyl-3-(tetrahydro-2H-pyran-4-yl)imidazo[1,5-a]pyrazin-8(7H)-one] was tested, and the inhibition at 10 µM (PDE1A; read-out: PDE1A, % inhibition (at 10 μM)) was 27%, the inhibition at 10 µM (PDE1B; read-out: PDE1B, % inhibition (at 10 μM)) was 36% and the IC50 (PDE1C) was 2300 nM. For the same compound, the inhibition at 10 µM (PDE9) was 36%.
For `Cc1cn2c(C3CCOCC3)ncc2c(=O)n1CC1CCCCC1` [Example 4, 7-(Cyclohexylmethyl)-6-methyl-3-(tetrahydro-2H-pyran-4-yl)imidazo[1,5-a]pyrazin-8(7H)-one], the IC50 (PDE1A) was 11 nM, the IC50 (PDE1B) was 25 nM and the IC50 (PDE1C) was 7 nM. For the same compound, the inhibition at 10 µM (PDE9) was -5%.
For `CCc1ccccc1Cn1c(C)cn2c(C3CCOCC3)ncc2c1=O` [Example 49, 7-(2-ethylbenzyl)-6-methyl-3-(tetrahydro-2H-pyran-4-yl)imidazo[1,5-a]pyrazin-8(7H)-one], the “percent inhibition of PDE1A at 2 µM” value (PDE1A) was 44, the inhibition at 1 µM (PDE1B) was 60% and the IC50 (PDE1C) was 173 nM. The inhibition at 10 µM (PDE9) was 1%.
